Patent publication US11759455B2, “Substituted 1H-imidazo[4,5-b]pyridin-2(3H)-ones and their use as GLUN2B receptor modulators” (JANSSEN PHARMACEUTICA NV, priority 2016, dated 2023)
Where two headings read alike, the source gives them in different places.

Target: T1, human GluN1/GluN2B NMDA receptors (Homo sapiens, UniProt Q13224)
T1 construct: expressed in transfected cells
Assay: Cell-based calcium flux (FLIPR) assay on cloned human NR1/NR2B ion channels expressed in mammalian cells (standard and HTS buffer variants);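 further: stable Tet-On inducible cell line, Ca2+ influx triggered by glutamate at about EC40 plus 10 µM glycine, fluorescent dye read-out over 5 min, normalized to control wells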

[1] = standard assay buffer (0.5 mM MgCl2 dye loading; 137 mM NaCl, 4 mM KCl assay buffer), human GluN1/GluN2B cells, read-out: NR2B IC50 (μM) standard assay
[2] = standard assay buffer (0.5 mM MgCl2 in dye loading buffer; 137 mM NaCl, 4 mM KCl in assay buffer), human GluN1/GluN2B, read-out: NR2B IC50 (μM) standard assay
[3] = HTS assay buffer (1.5 mM MgCl2 in dye loading buffer; 150 mM NaCl, 3 mM KCl in assay buffer), human GluN1/GluN2B, read-out: NR2B IC50 (μM) HTS assay

T1 sequence (Q13224 27-1484, other chains not shown): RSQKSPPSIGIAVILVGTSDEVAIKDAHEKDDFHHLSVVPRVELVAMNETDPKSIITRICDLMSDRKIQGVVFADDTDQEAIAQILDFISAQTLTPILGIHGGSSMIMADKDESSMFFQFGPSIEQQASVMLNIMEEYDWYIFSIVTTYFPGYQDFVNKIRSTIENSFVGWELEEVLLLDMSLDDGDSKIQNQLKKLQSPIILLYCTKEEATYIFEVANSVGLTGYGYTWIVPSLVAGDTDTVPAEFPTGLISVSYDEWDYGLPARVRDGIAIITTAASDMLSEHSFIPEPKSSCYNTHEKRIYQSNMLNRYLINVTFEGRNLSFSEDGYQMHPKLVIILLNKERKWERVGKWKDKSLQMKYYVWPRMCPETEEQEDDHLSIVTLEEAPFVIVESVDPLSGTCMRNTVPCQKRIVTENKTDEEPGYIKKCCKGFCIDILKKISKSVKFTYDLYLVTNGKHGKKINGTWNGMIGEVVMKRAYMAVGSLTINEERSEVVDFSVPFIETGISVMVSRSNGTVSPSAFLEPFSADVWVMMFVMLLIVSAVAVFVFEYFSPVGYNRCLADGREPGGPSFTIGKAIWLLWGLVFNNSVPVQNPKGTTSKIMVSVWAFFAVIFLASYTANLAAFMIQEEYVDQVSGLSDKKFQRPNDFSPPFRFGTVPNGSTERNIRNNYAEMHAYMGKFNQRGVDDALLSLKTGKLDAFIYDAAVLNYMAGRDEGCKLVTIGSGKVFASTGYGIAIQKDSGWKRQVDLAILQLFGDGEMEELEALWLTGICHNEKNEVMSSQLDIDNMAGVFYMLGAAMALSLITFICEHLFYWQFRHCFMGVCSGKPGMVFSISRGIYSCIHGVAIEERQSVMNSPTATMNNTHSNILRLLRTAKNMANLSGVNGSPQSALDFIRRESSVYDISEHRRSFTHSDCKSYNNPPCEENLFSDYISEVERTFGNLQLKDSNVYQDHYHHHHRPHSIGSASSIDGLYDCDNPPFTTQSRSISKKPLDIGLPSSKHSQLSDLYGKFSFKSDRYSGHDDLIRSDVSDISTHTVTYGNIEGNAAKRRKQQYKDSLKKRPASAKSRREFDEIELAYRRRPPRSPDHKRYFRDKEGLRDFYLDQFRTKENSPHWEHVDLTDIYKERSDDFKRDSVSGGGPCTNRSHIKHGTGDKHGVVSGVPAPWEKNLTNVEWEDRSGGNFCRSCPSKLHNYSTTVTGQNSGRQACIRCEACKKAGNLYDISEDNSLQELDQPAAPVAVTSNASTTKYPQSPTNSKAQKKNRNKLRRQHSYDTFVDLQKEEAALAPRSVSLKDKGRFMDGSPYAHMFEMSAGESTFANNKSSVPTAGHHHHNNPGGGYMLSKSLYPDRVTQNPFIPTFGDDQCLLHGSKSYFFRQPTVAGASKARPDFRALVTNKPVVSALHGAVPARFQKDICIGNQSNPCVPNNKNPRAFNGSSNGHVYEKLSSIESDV

SMILES | IC50 [1] [µM] | IC50 [2] [µM] | other results
O=c1[nH]c2ncc(-c3cccc(C(F)(F)F)c3)cc2n1Cc1cccc(F)c1 [Example 222, 1-[(3-Fluorophenyl)methyl]-6-[3-(trifluoromethyl)phenyl]-3H-imidazo[4,5-b]pyridin-2-one] | 0.479 | – | –
O=c1[nH]c2ncc(-c3cccc(C(F)(F)F)c3)cc2n1C(F)(F)c1cccnc1 [Example 237, 1-[Difluoro(3-pyridyl)methyl]-6-[3-(trifluoromethyl)phenyl]-3H-imidazo[4,5-b]pyridin-2-one] | > 10 | – | –
O=C(Cn1c(=O)[nH]c2ncc(-c3cccc(C(F)(F)F)c3)cc21)C1CCC1 [Example 262, 1-(2-cyclobutyl-2-oxo-ethyl)-6-[3-(trifluoromethyl)phenyl]-3H-imidazo[4,5-b]pyridin-2-one] | 0.308 | – | –
Cc1cccnc1Cn1c(=O)[nH]c2ncc(-c3ccc(F)c(F)c3)cc21 [Example 284, 6-(3,4-Difluorophenyl)-1-[(3-methyl-2-pyridyl)methyl]-3H-imidazo[4,5-b]pyridin-2-one] | > 10 | – | –
COc1ccc(-c2cnc3[nH]c(=O)n(Cc4cc(C)on4)c3c2)cc1F [Example 519, 6-(3-Fluoro-4-methoxy-phenyl)-1-[(5-methylisoxazol-3-yl)methyl]-3H-imidazo[4,5-b]pyridin-2-one] | – | 0.139 | –
Cn1c(=O)n(CC(=O)N2CC(F)C2)c2cc(-c3cc(C(F)F)cs3)cnc21 [Example 118, 6-[4-(Difluoromethyl)-2-thienyl]-1-[2-(3-fluoroazetidin-1-yl)-2-oxo-ethyl]-3-methyl-imidazo[4,5-b]pyridin-2-one] | 0.02 | – | –
COc1ccc(Cn2c(=O)[nH]c3ncc(-c4cccc(C(F)(F)F)c4)cc32)cc1F [Example 220, 1-[(3-Fluoro-4-methoxy-phenyl)methyl]-6-[3-(trifluoromethyl)phenyl]-3H-imidazo[4,5-b]pyridin-2-one] | 1.65 | – | –
COCCNC(=O)Cn1c(=O)[nH]c2ncc(-c3ccc(F)c(Cl)c3)cc21 [Example 612, 2-[6-(3-Chloro-4-fluoro-phenyl)-2-oxo-3H-imidazo[4,5-b]pyridin-1-yl]-N-(2-methoxyethyl)acetamide] | – | 0.116 | –
Cc1c(F)ccc(-c2cnc3c(c2)n(Cc2cnccn2)c(=O)n3C)c1F [Example 139, 6-(2,4-Difluoro-3-methyl-phenyl)-3-methyl-1-(pyrazin-2-ylmethyl)imidazo[4,5-b]pyridin-2-one] | 0.084 | – | –
O=c1[nH]c2ncc(-c3cccc(C(F)(F)F)c3)cc2n1Cc1ncc(F)cn1 [Example 256, 1-[(5-Fluoropyrimidin-2-yl)methyl]-6-[3-(trifluoromethyl)phenyl]-3H-imidazo[4,5-b]pyridin-2-one] | 0.134 | – | –
COc1ccc(-c2cnc3[nH]c(=O)n(CC(=O)c4cccs4)c3c2)cc1 [Example 461, 6-(4-Methoxyphenyl)-1-[2-oxo-2-(2-thienyl)ethyl]-3H-imidazo[4,5-b]pyridin-2-one] | – | 0.054 | –
N#Cc1cccc(Cn2c(=O)[nH]c3ncc(-c4ccc(F)c(Cl)c4)cc32)c1 [Example 480, 3-[[6-(3-Chloro-4-fluoro-phenyl)-2-oxo-3H-imidazo[4,5-b]pyridin-1-yl]methyl]benzonitrile] | – | – | IC50 [3]: 4.22 µM
COc1cc(F)ccc1-c1cnc2[nH]c(=O)n(Cc3cccc(F)c3)c2c1 [Example 499, 6-(4-Fluoro-2-methoxy-phenyl)-1-[(3-fluorophenyl)methyl]-3H-imidazo[4,5-b]pyridin-2-one] | – | 0.09 | –
Cc1c(F)ccc(-c2cnc3c(c2)n(Cc2cncnc2)c(=O)n3C)c1F [Example 69] | 0.033 | – | –
Cc1c(F)ccc(-c2cnc3c(c2)n(CC(=O)N2CC(F)(F)C2)c(=O)n3C)c1F [Example 414, 1-[2-(3,3-Difluoroazetidin-1-yl)-2-oxo-ethyl]-6-(2,4-difluoro-3-methyl-phenyl)-3-methyl-imidazo[4,5-b]pyridin-2-one] | – | 0.013 | –
Cn1c(=O)n(Cc2cncc(F)c2)c2cc(-c3ccc(Cl)c(Cl)c3)cnc21 [Example 351, 6-(3,4-Dichlorophenyl)-1-[(5-fluoro-3-pyridyl)methyl]-3-methyl-imidazo[4,5-b]pyridin-2-one] | – | 0.251 | –
Cc1cc(F)ccc1-c1cnc2[nH]c(=O)n(CCN3CCC3)c2c1 [Example 151, 1-[2-(Azetidin-1-yl)ethyl]-6-(4-fluoro-2-methyl-phenyl)-3H-imidazo[4,5-b]pyridin-2-one] | 0.115 | – | –
O=c1[nH]c2ncc(-c3cc(F)cc(F)c3)cc2n1Cc1cccc(Cl)c1 [Example 504, 1-[(3-Chlorophenyl)methyl]-6-(3,5-difluorophenyl)-3H-imidazo[4,5-b]pyridin-2-one] | – | – | IC50 [3]: 4.13 µM
COCc1noc(Cn2c(=O)[nH]c3ncc(-c4ccc(F)c(F)c4)cc32)n1 [Example 145, 6-(3,4-Difluorophenyl)-1-[[3-(methoxymethyl)-1,2,4-oxadiazol-5-yl]methyl]-3H-imidazo[4,5-b]pyridin-2-one] | 1.31 | – | –

SMILES | IC50 [1] [µM] | IC50 [2] [µM] | other results
CCC(=O)Cn1c(=O)[nH]c2ncc(-c3ccc(F)c(C)c3)cc21 [Example 331, 6-(4-Fluoro-3-methyl-phenyl)-1-(2-oxobutyl)-3H-imidazo[4,5-b]pyridin-2-one] | – | 0.012 | –
Cc1cccnc1Cn1c(=O)[nH]c2ncc(-c3ccc(F)c(C)c3F)cc21 [Example 317, 6-(2,4-Difluoro-3-methyl-phenyl)-1-[(3-methyl-2-pyridyl)methyl]-3H-imidazo[4,5-b]pyridin-2-one] | – | 0.046 | –
Cc1ccncc1Cn1c(=O)[nH]c2ncc(-c3ccc(F)c(C(F)(F)F)c3)cc21 [Example 314, 6-[4-Fluoro-3-(trifluoromethyl)phenyl]-1-[(4-methyl-3-pyridyl)methyl]-3H-imidazo[4,5-b]pyridin-2-one] | 0.049 | – | –
NC(=O)Cn1c(=O)[nH]c2ncc(-c3ccc(F)c(Cl)c3)cc21 [Example 434, 2-[6-(3-Chloro-4-fluoro-phenyl)-2-oxo-3H-imidazo[4,5-b]pyridin-1-yl]acetamide] | – | 0.583 | –
O=c1[nH]c2ncc(-c3cccc(C(F)(F)F)c3)cc2n1Cc1ccc(C(F)(F)F)cc1 [Example 219, 6-[3-(Trifluoromethyl)phenyl]-1-[[4-(trifluoromethyl)phenyl]methyl]-3H-imidazo[4,5-b]pyridin-2-one] | > 10 | – | –
Cc1cc(-c2cnc3c(c2)n(CC(=O)N2CC(F)C2)c(=O)n3C)ccc1F [Example 401, 1-[2-(3-Fluoroazetidin-1-yl)-2-oxo-ethyl]-6-(4-fluoro-3-methyl-phenyl)-3-methyl-imidazo[4,5-b]pyridin-2-one] | – | 0.016 | –
Cn1c(=O)n(CC(=O)N2CC(F)C2)c2cc(-c3cccc(C(F)(F)F)c3)cnc21 [Example 34, 1-[2-(3-Fluoroazetidin-1-yl)-2-oxo-ethyl]-3-methyl-6-[3-(trifluoromethyl)phenyl]imidazo[4,5-b]pyridin-2-one] | 0.065 | – | –
Cc1c(F)ccc(-c2cnc3c(c2)n(Cc2ccccn2)c(=O)n3C)c1F [Example 68, 6-(2,4-Difluoro-3-methyl-phenyl)-3-methyl-1-(2-pyridylmethyl)imidazo[4,5-b]pyridin-2-one] | 0.31 | – | –
COc1cc(F)ccc1-c1cnc2[nH]c(=O)n(Cc3ccc(F)cc3)c2c1 [Example 501, 6-(4-Fluoro-2-methoxy-phenyl)-1-[(4-fluorophenyl)methyl]-3H-imidazo[4,5-b]pyridin-2-one] | – | – | IC50 [3]: 0.79 µM
O=C(Cn1c(=O)[nH]c2ncc(-c3cccc(C(F)(F)F)c3)cc21)N1CC(CCF)C1 [Example 536, 1-[2-[3-(2-Fluoroethyl)azetidin-1-yl]-2-oxo-ethyl]-6-[3-(trifluoromethyl)phenyl]-3H-imidazo[4,5-b]pyridin-2-one] | – | 0.163 | –
Cn1c(=O)n(Cc2ccccn2)c2cc(-c3cccc(C(F)(F)F)c3)cnc21 [Example 251, 3-Methyl-1-(2-pyridylmethyl)-6-[3-(trifluoromethyl)phenyl]imidazo[4,5-b]pyridin-2-one] | 0.8 | – | –
COc1cccc(-c2cnc3[nH]c(=O)n(Cc4ccc(F)cc4)c3c2)c1OC [Example 493, 6-(2,3-Dimethoxyphenyl)-1-[(4-fluorophenyl)methyl]-3H-imidazo[4,5-b]pyridin-2-one] | – | – | IC50 [3]: 1.01 µM
CN(C)C(=O)Cn1c(=O)n(C)c2ncc(-c3cccc(C(F)(F)F)c3)cc21 [Example 419, N,N-Dimethyl-2-[3-methyl-2-oxo-6-[3-(trifluoromethyl)phenyl]imidazo[4,5-b]pyridin-1-yl]acetamide] | – | 0.047 | –
Cc1cccc(-c2cnc3c(c2)n(CC(=O)N(C)C)c(=O)n3C)c1F [Example 427, 2-[6-(2-Fluoro-3-methyl-phenyl)-3-methyl-2-oxo-imidazo[4,5-b]pyridin-1-yl]-N,N-dimethyl-acetamide] | – | 0.041 | –
Cn1c(=O)n(Cc2cccnc2)c2cc(-c3cc(F)c(F)c(F)c3)cnc21 [Example 353, 3-Methyl-1-(3-pyridylmethyl)-6-(3,4,5-trifluorophenyl)imidazo[4,5-b]pyridin-2-one] | – | 0.144 | –
COc1cc(Cn2c(=O)[nH]c3ncc(-c4cccc(C(F)(F)F)c4)cc32)cc(OC)c1 [Example 510, 1-[(3,5-Dimethoxyphenyl)methyl]-6-[3-(trifluoromethyl)phenyl]-3H-imidazo[4,5-b]pyridin-2-one] | – | – | IC50 [3]: 17.4 µM
Cc1ccccc1-c1cnc2[nH]c(=O)n(CCN3CCC3)c2c1 [Example 152, 1-[2-(Azetidin-1-yl)ethyl]-6-(o-tolyl)-3H-imidazo[4,5-b]pyridin-2-one] | 0.127 | – | –
Cn1c(=O)n(CCN2CCC2)c2cc(-c3cccc(C(F)(F)F)c3)cnc21 [Example 18, 1-[2-(Azetidin-1-yl)ethyl]-3-methyl-6-[3-(trifluoromethyl)phenyl]imidazo[4,5-b]pyridin-2-one] | 0.7 | – | –
Cn1c(=O)n(CC(=O)N2CCC2)c2cc(-c3cc(F)c(F)c(F)c3)cnc21 [Example 411, 1-[2-(Azetidin-1-yl)-2-oxo-ethyl]-3-methyl-6-(3,4,5-trifluorophenyl)imidazo[4,5-b]pyridin-2-one] | – | 0.014 | –
